Assay results published in ChEMBL document CHEMBL5465560, “Selectivity Literature for EUbOPEN Chemogenomic Library” (2024).

What was measured:
[1] = molecular target: T1, Ephrin type-A receptor 8 (Homo sapiens) (UniProt P29322); conditions: at 10 µM
T1 sequence (whole entry): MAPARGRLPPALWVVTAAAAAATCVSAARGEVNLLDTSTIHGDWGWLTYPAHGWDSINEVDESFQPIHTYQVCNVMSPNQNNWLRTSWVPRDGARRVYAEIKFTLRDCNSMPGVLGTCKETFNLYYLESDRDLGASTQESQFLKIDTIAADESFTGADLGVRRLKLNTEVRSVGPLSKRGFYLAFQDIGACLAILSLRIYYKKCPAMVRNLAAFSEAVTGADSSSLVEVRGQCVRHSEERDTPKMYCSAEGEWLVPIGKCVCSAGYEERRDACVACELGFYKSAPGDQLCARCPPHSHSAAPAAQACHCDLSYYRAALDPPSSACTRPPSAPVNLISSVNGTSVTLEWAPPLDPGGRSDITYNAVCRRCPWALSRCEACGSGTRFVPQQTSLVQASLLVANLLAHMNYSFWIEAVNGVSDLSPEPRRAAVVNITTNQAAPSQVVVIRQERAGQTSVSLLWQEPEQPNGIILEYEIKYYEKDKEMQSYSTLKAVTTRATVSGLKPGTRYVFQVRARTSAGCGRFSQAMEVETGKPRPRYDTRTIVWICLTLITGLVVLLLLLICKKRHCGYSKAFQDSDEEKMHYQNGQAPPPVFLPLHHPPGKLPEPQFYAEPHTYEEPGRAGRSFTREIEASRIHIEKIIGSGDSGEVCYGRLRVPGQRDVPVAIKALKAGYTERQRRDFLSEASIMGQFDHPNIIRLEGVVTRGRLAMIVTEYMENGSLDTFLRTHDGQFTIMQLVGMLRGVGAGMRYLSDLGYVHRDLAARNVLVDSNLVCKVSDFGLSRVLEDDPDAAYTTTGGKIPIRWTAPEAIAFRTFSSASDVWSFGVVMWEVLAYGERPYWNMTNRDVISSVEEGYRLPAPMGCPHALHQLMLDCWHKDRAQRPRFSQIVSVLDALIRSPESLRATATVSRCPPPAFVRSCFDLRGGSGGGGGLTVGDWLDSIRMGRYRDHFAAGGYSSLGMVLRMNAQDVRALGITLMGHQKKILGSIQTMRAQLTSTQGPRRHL

[2] = molecular target: Serine/threonine-protein kinase MRCK beta (Homo sapiens) (UniProt Q9Y5S2); experiment: Selectivity interaction (KinomeScan (DiscoverX)) EUB0000092b CDC42BPB; conditions: at 10 µM
[3] = molecular target: T2, EKC/KEOPS complex subunit TP53RK (Homo sapiens) (UniProt Q96S44); experiment: Selectivity interaction (Kinase panel (KiNativ target engagement assay in Jurkat cells)) EUB0001635a TP53RK; assay type: cell-based; conditions: Selectivity number of off-targets 0.0, Selectivity number of targets 233.0, Source Knowledge https://www.sciencedirect.com/science/article/pii/S2451945619300674?via%3Dihub, at 1 µM
T2 sequence (whole entry): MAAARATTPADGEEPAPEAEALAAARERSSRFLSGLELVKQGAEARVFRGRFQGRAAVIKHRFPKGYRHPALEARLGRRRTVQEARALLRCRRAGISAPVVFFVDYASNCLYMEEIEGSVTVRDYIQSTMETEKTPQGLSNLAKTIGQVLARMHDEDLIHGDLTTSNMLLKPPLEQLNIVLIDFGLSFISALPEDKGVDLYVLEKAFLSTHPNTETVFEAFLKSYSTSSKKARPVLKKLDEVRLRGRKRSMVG

[4] = molecular target: T3, Testis-specific serine/threonine-protein kinase 2 (Homo sapiens) (UniProt Q96PF2); experiment: Selectivity interaction (Kinase panel (Invitrogen)) EUB0000639a TSSK2; conditions: at 200 nM
T3 sequence (whole entry): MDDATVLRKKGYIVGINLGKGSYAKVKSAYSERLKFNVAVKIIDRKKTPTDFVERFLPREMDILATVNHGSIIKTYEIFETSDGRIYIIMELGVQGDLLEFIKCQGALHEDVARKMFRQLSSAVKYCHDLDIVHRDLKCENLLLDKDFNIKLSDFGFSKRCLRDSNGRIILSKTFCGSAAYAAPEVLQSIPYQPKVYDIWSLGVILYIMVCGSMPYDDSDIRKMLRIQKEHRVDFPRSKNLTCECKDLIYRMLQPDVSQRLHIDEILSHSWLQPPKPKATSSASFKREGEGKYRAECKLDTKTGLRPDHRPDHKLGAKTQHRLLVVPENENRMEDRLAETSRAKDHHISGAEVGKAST

[5] = molecular target: Mitogen-activated protein kinase 10 (Homo sapiens, UniProt P53779); experiment: Selectivity interaction (Kinase panel (Invitrogen)) EUB0000639a MAPK10; conditions: at 200 nM
[6] = molecular target: Calcium/calmodulin-dependent protein kinase type 1D (Homo sapiens) (UniProt Q8IU85); experiment: Selectivity interaction (SelectScreen profiling (Invitrogen)) EUB0000607a CAMK1D; conditions: at 2 µM
[7] = molecular target: Tyrosine-protein kinase BTK (Homo sapiens, UniProt Q06187); experiment: Selectivity interaction (KinomeScan (DiscoverX)) EUB0001619a BTK; conditions: at 1 µM
[8] = molecular target: Serine/threonine-protein kinase N1 (Homo sapiens, UniProt Q16512); experiment: Selectivity interaction (KinomeScan (DiscoverX)) EUB0001619a PKN1; conditions: at 1 µM
Chain of Serine/threonine-protein kinase N1 (Q16512 2-942 limits assumed): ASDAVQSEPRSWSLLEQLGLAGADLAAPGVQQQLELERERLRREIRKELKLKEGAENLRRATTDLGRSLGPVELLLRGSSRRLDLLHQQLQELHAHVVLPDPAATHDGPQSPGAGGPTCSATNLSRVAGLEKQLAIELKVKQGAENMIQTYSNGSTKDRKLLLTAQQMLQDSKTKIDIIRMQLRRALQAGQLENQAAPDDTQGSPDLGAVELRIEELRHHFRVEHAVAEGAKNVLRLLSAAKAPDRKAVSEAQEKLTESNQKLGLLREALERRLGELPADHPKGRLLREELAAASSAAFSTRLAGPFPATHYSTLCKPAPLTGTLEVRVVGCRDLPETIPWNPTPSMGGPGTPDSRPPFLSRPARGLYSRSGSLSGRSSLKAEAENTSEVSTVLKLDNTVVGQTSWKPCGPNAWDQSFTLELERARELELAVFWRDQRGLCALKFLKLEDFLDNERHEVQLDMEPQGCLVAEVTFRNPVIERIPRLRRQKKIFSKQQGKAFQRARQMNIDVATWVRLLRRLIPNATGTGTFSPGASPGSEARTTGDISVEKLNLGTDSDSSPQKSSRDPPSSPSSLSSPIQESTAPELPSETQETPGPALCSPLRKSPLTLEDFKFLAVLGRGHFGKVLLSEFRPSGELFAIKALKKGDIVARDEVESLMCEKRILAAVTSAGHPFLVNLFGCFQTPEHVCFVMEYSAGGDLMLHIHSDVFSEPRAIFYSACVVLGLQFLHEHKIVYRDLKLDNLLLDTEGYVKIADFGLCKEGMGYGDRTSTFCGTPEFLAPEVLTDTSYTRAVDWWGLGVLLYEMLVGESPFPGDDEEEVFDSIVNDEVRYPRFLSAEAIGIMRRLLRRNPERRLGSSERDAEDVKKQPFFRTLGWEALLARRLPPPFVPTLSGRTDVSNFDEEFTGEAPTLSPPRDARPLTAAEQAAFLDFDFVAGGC

Chain of Calcium/calmodulin-dependent protein kinase type 1D (Homo sapiens) (Q8IU85 whole entry, looked up): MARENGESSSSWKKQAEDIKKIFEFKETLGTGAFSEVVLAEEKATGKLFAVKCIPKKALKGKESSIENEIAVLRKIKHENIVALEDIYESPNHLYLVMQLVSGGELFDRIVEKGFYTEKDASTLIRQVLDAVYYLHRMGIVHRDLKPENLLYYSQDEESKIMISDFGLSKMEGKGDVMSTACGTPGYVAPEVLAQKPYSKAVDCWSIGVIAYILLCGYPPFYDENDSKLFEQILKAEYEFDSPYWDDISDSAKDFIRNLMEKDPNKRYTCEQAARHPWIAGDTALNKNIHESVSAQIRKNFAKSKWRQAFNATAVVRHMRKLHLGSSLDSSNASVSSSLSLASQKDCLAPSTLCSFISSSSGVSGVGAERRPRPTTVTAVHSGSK
Chain of Serine/threonine-protein kinase MRCK beta (Homo sapiens) (Q9Y5S2 whole entry): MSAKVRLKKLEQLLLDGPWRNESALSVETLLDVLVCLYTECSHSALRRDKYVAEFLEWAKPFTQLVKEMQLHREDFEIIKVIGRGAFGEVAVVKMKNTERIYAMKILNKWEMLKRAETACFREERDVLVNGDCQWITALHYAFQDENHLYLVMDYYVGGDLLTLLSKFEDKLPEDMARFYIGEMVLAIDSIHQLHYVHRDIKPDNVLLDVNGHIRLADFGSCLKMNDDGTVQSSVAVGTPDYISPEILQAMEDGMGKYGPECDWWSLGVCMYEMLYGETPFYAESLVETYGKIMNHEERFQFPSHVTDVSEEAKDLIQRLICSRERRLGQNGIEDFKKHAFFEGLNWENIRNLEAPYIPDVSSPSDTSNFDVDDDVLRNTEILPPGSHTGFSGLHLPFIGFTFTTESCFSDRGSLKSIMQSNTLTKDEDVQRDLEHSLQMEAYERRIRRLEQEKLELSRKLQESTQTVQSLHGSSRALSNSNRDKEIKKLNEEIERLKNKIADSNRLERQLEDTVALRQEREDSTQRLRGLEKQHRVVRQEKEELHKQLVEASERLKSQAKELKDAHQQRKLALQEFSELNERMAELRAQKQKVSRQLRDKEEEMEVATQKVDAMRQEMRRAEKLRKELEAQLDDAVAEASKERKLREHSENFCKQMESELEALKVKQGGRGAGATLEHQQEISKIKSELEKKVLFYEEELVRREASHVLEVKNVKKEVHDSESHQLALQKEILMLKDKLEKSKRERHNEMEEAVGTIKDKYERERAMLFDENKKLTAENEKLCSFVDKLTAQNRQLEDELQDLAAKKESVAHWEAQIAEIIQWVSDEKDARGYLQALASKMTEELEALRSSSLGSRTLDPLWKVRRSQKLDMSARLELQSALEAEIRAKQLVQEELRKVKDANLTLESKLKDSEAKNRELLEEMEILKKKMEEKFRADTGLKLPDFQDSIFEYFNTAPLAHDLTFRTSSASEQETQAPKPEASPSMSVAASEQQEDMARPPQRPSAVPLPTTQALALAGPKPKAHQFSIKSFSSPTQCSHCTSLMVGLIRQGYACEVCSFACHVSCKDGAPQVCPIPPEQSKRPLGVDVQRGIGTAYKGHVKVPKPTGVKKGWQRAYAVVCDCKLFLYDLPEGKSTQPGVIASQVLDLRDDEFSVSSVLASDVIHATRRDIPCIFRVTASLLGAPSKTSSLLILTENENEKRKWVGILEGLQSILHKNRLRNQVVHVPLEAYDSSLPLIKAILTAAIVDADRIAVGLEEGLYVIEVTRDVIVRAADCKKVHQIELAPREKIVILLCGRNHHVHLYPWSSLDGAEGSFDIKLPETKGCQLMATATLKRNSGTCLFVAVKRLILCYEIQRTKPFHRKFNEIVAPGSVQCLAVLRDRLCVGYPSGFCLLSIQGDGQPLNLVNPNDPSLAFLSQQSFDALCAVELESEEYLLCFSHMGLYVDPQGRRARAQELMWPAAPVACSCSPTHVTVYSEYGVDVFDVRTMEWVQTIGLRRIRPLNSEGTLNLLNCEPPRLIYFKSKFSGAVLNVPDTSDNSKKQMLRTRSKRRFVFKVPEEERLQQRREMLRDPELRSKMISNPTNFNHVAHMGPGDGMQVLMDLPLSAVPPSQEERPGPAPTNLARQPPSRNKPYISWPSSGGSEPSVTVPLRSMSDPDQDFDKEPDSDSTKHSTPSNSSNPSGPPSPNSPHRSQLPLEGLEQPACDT
Chain of Tyrosine-protein kinase BTK (Q06187 whole entry): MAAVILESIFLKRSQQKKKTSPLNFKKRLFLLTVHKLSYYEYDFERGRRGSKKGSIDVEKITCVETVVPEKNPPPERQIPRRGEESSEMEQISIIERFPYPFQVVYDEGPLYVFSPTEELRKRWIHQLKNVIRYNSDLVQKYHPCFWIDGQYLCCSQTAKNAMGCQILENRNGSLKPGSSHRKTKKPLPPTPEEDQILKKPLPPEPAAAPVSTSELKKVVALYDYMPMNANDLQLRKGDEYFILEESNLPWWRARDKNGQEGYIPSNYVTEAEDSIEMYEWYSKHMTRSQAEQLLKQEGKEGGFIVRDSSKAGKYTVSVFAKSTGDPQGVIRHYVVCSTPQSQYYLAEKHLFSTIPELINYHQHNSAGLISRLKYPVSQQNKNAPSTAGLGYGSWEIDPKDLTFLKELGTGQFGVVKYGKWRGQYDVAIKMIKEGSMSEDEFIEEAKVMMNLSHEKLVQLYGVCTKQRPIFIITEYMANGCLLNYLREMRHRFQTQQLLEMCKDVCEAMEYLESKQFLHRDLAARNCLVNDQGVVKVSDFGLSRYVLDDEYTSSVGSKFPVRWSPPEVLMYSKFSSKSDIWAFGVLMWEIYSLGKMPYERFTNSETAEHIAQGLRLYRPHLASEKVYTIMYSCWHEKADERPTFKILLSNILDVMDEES
Chain of Mitogen-activated protein kinase 10 (P53779 whole entry): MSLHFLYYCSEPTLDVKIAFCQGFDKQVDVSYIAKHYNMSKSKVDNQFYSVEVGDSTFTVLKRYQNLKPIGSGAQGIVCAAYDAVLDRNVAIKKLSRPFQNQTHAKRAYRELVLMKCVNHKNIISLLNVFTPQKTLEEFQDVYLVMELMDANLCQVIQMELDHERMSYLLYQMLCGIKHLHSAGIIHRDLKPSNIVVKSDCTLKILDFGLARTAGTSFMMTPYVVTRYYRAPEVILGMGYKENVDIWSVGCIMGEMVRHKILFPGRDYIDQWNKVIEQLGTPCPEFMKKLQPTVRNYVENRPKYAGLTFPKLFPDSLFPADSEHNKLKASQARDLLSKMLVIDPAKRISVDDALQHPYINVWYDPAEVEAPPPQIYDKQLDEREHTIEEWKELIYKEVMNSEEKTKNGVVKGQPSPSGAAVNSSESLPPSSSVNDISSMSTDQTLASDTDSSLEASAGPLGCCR

**Q.** Which % of control [1] does the source give for `CCN(CC)CCCCNc1ncc2cc(-c3cc(OC)cc(OC)c3)c(NC(=O)NC(C)(C)C)nc2n1` here?
**A.** The % of control was 100%.

**Q.** For `CCC(=O)N1CCN(c2ccc(-n3c(=O)ccc4cnc5ccc(-c6cnc7ccccc7c6)cc5c43)cc2C(F)(F)F)CC1`, which % of control [2] is on record?
**A.** The % of control was 3.4%.

**Q.** Which % of engagement [3] does the source give for `C=CC(=O)Nc1ccc(C(=O)Nc2[nH]nc3c2CN(C(=O)N[C@H](CN(C)C)c2ccccc2)C3(C)C)cc1` here?
**A.** The % of engagement was -14.9%.

**Q.** What does the source list for `CC[C@@H]1[C@H](F)C(=O)N[C@@H]1COc1nccc2cc(C(N)=O)c(OC)cc12` [ZIMLOVISERTIB]?
**A.** % of inhibition [4]: 8.34%; % of inhibition [5]: 4.92%

**Q.** How did the % of inhibition [6] turn out when `CNC(=O)Nc1ccc(-c2nc(N3CC4CCC(C3)O4)c3cnn(C4CCC5(CC4)OCCO5)c3n2)cc1` was run?
**A.** Its % of inhibition is 0%.

**Q.** Which results are given for `N#Cc1cccc(-c2c[nH]c3ncnc(N4CCOCC4)c23)c1`?
**A.** % of control [7]: 100%; % of control [8]: 62%
